Tested on: MV-4-11 cells
Assay: Gene expression microarray analysis (Affymetrix PrimeView) and GSEA
Format: cell-based, human
Set-up: RFU PODN (11730768_x_at) / Fold change /veh PODN (11730768_x_at) / RFU LINC00158 (11744669_a_at) / Fold change /veh LINC00158 (11744669_a_at) / RFU DUSP10 (11751237_a_at) / Fold change /veh DUSP10 (11751237_a_at) / RFU ID3 (11757404_x_at) / Fold change /veh ID3 (11757404_x_at) / RFU PLEKHG5 (11737974_s_at) / Fold change /veh PLEKHG5 (11737974_s_at) / RFU LRRC4B (11730491_at) / Fold change /veh LRRC4B (11730491_at) / RFU GIMAP4 (11747438_a_at) / Fold change /veh GIMAP4 (11747438_a_at) / RFU KRT8 (11758183_x_at) / Fold change /veh KRT8 (11758183_x_at) / RFU CNN1 (11734310_a_at) / Fold change /veh CNN1 (11734310_a_at) / RFU VPS37D (11726825_at) / Fold change /veh VPS37D (11726825_at) / RFU C10orf10 (11716522_x_at) / Fold change /veh C10orf10 (11716522_x_at) / RFU KIR2DL2 /// KIR2DL4 /// KIR2DL5A /// KIR2DL5B /// KIR2DS1 /// KIR2DS2 /// KIR2DS3 /// KIR2DS4 /// KIR3DL3 /// KIR3DL3 /// KIR3DS1 (11738374_at) / Fold change /veh KIR2DL2 /// KIR2DL4 /// KIR2DL5A /// KIR2DL5B /// KIR2DS1 /// KIR2DS2 /// KIR2DS3 /// KIR2DS4 /// KIR3DL3 /// KIR3DL3 /// KIR3DS1 (11738374_at) / RFU C1QL1 (11718748_at) / Fold change /veh C1QL1 (11718748_at) / RFU TMPRSS4 (11747572_a_at) / Fold change /veh TMPRSS4 (11747572_a_at) / RFU HAMP (11756126_x_at) / Fold change /veh HAMP (11756126_x_at) / RFU RNFT2 (11725882_a_at) / Fold change /veh RNFT2 (11725882_a_at) / RFU NR4A2 (11747474_a_at) / Fold change /veh NR4A2 (11747474_a_at) / RFU ABCC12 (11746883_a_at) / Fold change /veh ABCC12 (11746883_a_at) / RFU TMEM136 (11760407_x_at) / Fold change /veh TMEM136 (11760407_x_at) / RFU CLDN22 /// WWC2 (11732394_at) / Fold change /veh CLDN22 /// WWC2 (11732394_at) / RFU HLA-DPB1 (11760878_x_at) / Fold change /veh HLA-DPB1 (11760878_x_at) / RFU SPINT1 (11716480_a_at) / Fold change /veh SPINT1 (11716480_a_at) / RFU GAP43 (11754022_s_at) / Fold change /veh GAP43 (11754022_s_at) / RFU A4GNT (11735810_at) / Fold change /veh A4GNT (11735810_at) / RFU PRB3 (11715151_x_at) / Fold change /veh PRB3 (11715151_x_at) / RFU TUBB4B (11761932_at) / Fold change /veh TUBB4B (11761932_at) / RFU CAPN14 (11732068_a_at) / Fold change /veh CAPN14 (11732068_a_at) / RFU TMCC2 (11721928_a_at) / Fold change /veh TMCC2 (11721928_a_at) / RFU IRGQ (11745062_a_at) / Fold change /veh IRGQ (11745062_a_at) / RFU FAM174B (11720279_a_at) / Fold change /veh FAM174B (11720279_a_at) / RFU TMPRSS4 (11748680_a_at) / Fold change /veh TMPRSS4 (11748680_a_at) / RFU FAM212B (11763350_a_at) / Fold change /veh FAM212B (11763350_a_at) / RFU PLEKHG5 (11743358_a_at) / Fold change /veh PLEKHG5 (11743358_a_at) / RFU ZSCAN30 (11745921_a_at) / Fold change /veh ZSCAN30 (11745921_a_at) / RFU CMKLR1 (11741424_a_at) / Fold change /veh CMKLR1 (11741424_a_at) / RFU LOC101060620 /// MAPK8IP1 (11723275_at) / Fold change /veh LOC101060620 /// MAPK8IP1 (11723275_at) / RFU SPTSSB (11747773_x_at) / Fold change /veh SPTSSB (11747773_x_at) / RFU PRSS12 (11739890_at) / Fold change /veh PRSS12 (11739890_at) / RFU BIN1 (11741810_x_at) / Fold change /veh BIN1 (11741810_x_at) / RFU WNT11 (11732464_a_at) / Fold change /veh WNT11 (11732464_a_at) / RFU C10orf10 (11716521_a_at) / Fold change /veh C10orf10 (11716521_a_at) / RFU C5orf56 (11738089_at) / Fold change /veh C5orf56 (11738089_at) / RFU CYB561 (11721691_x_at) / Fold change /veh CYB561 (11721691_x_at) / RFU ANKRD19P (11752326_a_at) / Fold change /veh ANKRD19P (11752326_a_at) / RFU OR2T12 /// OR2T33 /// OR2T8 (11738714_s_at) / Fold change /veh OR2T12 /// OR2T33 /// OR2T8 (11738714_s_at) / RFU VCAN (11748164_a_at) / Fold change /veh VCAN (11748164_a_at) / RFU JSRP1 (11732532_at) / Fold change /veh JSRP1 (11732532_at) / RFU KRTAP10-11 (11738290_x_at) / Fold change /veh KRTAP10-11 (11738290_x_at) / RFU MYO3A (11730013_a_at) / Fold change /veh MYO3A (11730013_a_at) / RFU EBF3 (11725865_a_at) / Fold change /veh EBF3 (11725865_a_at) / RFU CAMK2N1 (11719241_x_at) / Fold change /veh CAMK2N1 (11719241_x_at) / RFU C5orf56 (11738088_a_at) / Fold change /veh C5orf56 (11738088_a_at) / RFU OLFML3 (11715873_a_at) / Fold change /veh OLFML3 (11715873_a_at) / RFU LOC100653217 /// NTM (11731650_a_at) / Fold change /veh LOC100653217 /// NTM (11731650_a_at) / RFU MAPK11 (11762145_a_at) / Fold change /veh MAPK11 (11762145_a_at) / RFU FIZ1 (11724087_x_at) / Fold change /veh FIZ1 (11724087_x_at) / RFU OASL (11726364_x_at) / Fold change /veh OASL (11726364_x_at) / RFU SOX15 (11748057_x_at) / Fold change /veh SOX15 (11748057_x_at) / RFU CD79A (11719716_a_at) / Fold change /veh CD79A (11719716_a_at) / RFU HIST1H1D (11736915_at) / Fold change /veh HIST1H1D (11736915_at) / RFU CASKIN2 (11723855_a_at) / Fold change /veh CASKIN2 (11723855_a_at) / RFU LOC730098 (11760151_x_at) / Fold change /veh LOC730098 (11760151_x_at) / RFU OR4N2 (11742367_at) / Fold change /veh OR4N2 (11742367_at) / RFU PRRT2 (11749266_a_at) / Fold change /veh PRRT2 (11749266_a_at) / RFU SNX32 (11753110_a_at) / Fold change /veh SNX32 (11753110_a_at) / RFU CDHR5 (11726645_a_at) / Fold change /veh CDHR5 (11726645_a_at) / RFU RCAN1 (11760418_a_at) / Fold change /veh RCAN1 (11760418_a_at) / RFU FAM167A (11723789_a_at) / Fold change /veh FAM167A (11723789_a_at) / RFU FAM26E (11764081_at) / Fold change /veh FAM26E (11764081_at) / RFU ISYNA1 (11749810_s_at) / Fold change /veh ISYNA1 (11749810_s_at) / RFU ACY1 (11761880_at) / Fold change /veh ACY1 (11761880_at) / RFU 11764098_at / Fold change /veh 11764098_at / RFU SAMD14 (11745864_x_at) / Fold change /veh SAMD14 (11745864_x_at) / RFU NPB (11741838_a_at) / Fold change /veh NPB (11741838_a_at) / RFU TMPRSS6 (11731388_a_at) / Fold change /veh TMPRSS6 (11731388_a_at) / RFU KRTAP10-2 (11738614_at) / Fold change /veh KRTAP10-2 (11738614_at) / RFU ARHGAP8 /// PRR5-ARHGAP8 (11727945_x_at) / Fold change /veh ARHGAP8 /// PRR5-ARHGAP8 (11727945_x_at) / RFU KRTAP5-7 /// NADSYN1 (11734609_at) / Fold change /veh KRTAP5-7 /// NADSYN1 (11734609_at) / RFU RASL12 (11751679_a_at) / Fold change /veh RASL12 (11751679_a_at) / RFU CDKN2B (11736163_a_at) / Fold change /veh CDKN2B (11736163_a_at) / RFU PRF1 (11729649_at) / Fold change /veh PRF1 (11729649_at) / RFU, ZNF638 /// ZNF638-IT1 / Fold change vs veh, ZNF638 /// ZNF638-IT1 / RFU, PANK3 / Fold change vs veh, PANK3 / RFU, SH3YL1 / Fold change vs veh, SH3YL1 / RFU, ZEB2 / Fold change vs veh, ZEB2 / RFU, NRIP1 / Fold change vs veh, NRIP1 / RFU, PTTG1IP / Fold change vs veh, PTTG1IP / RFU, CAPN2 / Fold change vs veh, CAPN2 / RFU, MED14 / Fold change vs veh, MED14 / RFU, SNORA58 / Fold change vs veh, SNORA58 / RFU, C1orf63 / Fold change vs veh, C1orf63 / RFU, LRRFIP1 / Fold change vs veh, LRRFIP1 / RFU, NDUFAF7 / Fold change vs veh, NDUFAF7 / RFU, SLC12A2 / Fold change vs veh, SLC12A2 / RFU, IBTK / Fold change vs veh, IBTK / RFU, ESF1 / Fold change vs veh, ESF1 / Fold change vs veh, TMEM50B / RFU, TAOK1 / Fold change vs veh, TAOK1 / RFU, ACBD3 / Fold change vs veh, ACBD3 / RFU, TMA16 / Fold change vs veh, TMA16 / RFU, RWDD3 / Fold change vs veh, RWDD3 / RFU, BCAT1 / Fold change vs veh, BCAT1 / RFU, EDEM3 / Fold change vs veh, EDEM3 / RFU, TMEM33 / Fold change vs veh, TMEM33 / RFU, WDR75 / Fold change vs veh, WDR75 / RFU, AHCTF1 / Fold change vs veh, AHCTF1 / RFU, TFRC / Fold change vs veh, TFRC / RFU, ZDHHC17 / Fold change vs veh, ZDHHC17 / RFU, NOM1 / Fold change vs veh, NOM1 / RFU, ARL8B / Fold change vs veh, ARL8B / RFU, ZBTB11 / Fold change vs veh, ZBTB11 / RFU, TAMM41 / Fold change vs veh, TAMM41 / RFU, KIAA1704 /// LOC100996395 / Fold change vs veh, KIAA1704 /// LOC100996395 / RFU, ING1 / Fold change vs veh, ING1 / RFU, TRMT61B / Fold change vs veh, TRMT61B / RFU, FUBP3 / Fold change vs veh, FUBP3 / RFU, TP53 / Fold change vs veh, TP53 / RFU, TNKS2 / Fold change vs veh, TNKS2 / RFU, ZFP14 / Fold change vs veh, ZFP14 / RFU, ACTR2 / Fold change vs veh, ACTR2 / RFU, PPP3R1 / Fold change vs veh, PPP3R1 / RFU, PIK3R1 / Fold change vs veh, PIK3R1 / RFU, HNRNPA1 / Fold change vs veh, HNRNPA1 / RFU, RNF170 / Fold change vs veh, RNF170 / RFU, ZNF28 / Fold change vs veh, ZNF28 / RFU, RNGTT / Fold change vs veh, RNGTT / RFU, OGT / Fold change vs veh, OGT / RFU, BRD1 / Fold change vs veh, BRD1 / RFU, MARS / Fold change vs veh, MARS / RFU, ZNF655 / Fold change vs veh, ZNF655 / RFU, FAHD1 / Fold change vs veh, FAHD1 / RFU, BDP1 / Fold change vs veh, BDP1 / RFU, LRRCC1 / Fold change vs veh, LRRCC1 / RFU, ARID1A / Fold change vs veh, ARID1A / RFU, ZNF146 / Fold change vs veh, ZNF146 / RFU, ZNF330 / Fold change vs veh, ZNF330 / RFU, GPN3 / Fold change vs veh, GPN3 / RFU, C9orf123 / Fold change vs veh, C9orf123 / RFU, N4BP2L2 / Fold change vs veh, N4BP2L2 / RFU, ARFIP1 / Fold change vs veh, ARFIP1 / RFU, FAM179B / Fold change vs veh, FAM179B / RFU, BCL10 / Fold change vs veh, BCL10 / RFU, UHRF1BP1L / Fold change vs veh, UHRF1BP1L / RFU, BET1 / Fold change vs veh, BET1 / RFU, CNOT2 / Fold change vs veh, CNOT2 / RFU, ZNF268 / Fold change vs veh, ZNF268 / Fold change vs veh, ZNF507 / RFU, DGCR2 / Fold change vs veh, DGCR2 / RFU, WDSUB1 / Fold change vs veh, WDSUB1 / Fold change vs veh, HSP90B1 /// MIR3652 / RFU, ADSS / Fold change vs veh, ADSS / RFU, GK / Fold change vs veh, GK / RFU, ZNF148 / Fold change vs veh, ZNF148 / RFU, TAF9 / Fold change vs veh, TAF9 / RFU, SLC1A5 / Fold change vs veh, SLC1A5 / RFU, SLMO2 / Fold change vs veh, SLMO2 / RFU, ABCC4 / Fold change vs veh, ABCC4 / RFU, LOC101060439 /// RAP1B / Fold change vs veh, LOC101060439 /// RAP1B / RFU, RFX7 / Fold change vs veh, RFX7 / RFU, GTPBP10 / Fold change vs veh, GTPBP10 / RFU, CNEP1R1 / Fold change vs veh, CNEP1R1 / RFU, BIVM-ERCC5 /// ERCC5 / Fold change vs veh, BIVM-ERCC5 /// ERCC5 / RFU, ILF3 / Fold change vs veh, ILF3 / RFU 11762660_at / Fold change /veh 11762660_at / RFU VCAN (11757783_s_at) / Fold change /veh VCAN (11757783_s_at) / RFU DDX43 (11728927_at) / Fold change /veh DDX43 (11728927_at) / RFU KRT8 (11758188_x_at) / Fold change /veh KRT8 (11758188_x_at) / RFU NKD1 (11759106_at) / Fold change /veh NKD1 (11759106_at) / RFU SRD5A1 (11742802_a_at) / Fold change /veh SRD5A1 (11742802_a_at) / RFU TPSAB1 /// TPSB2 (11721975_s_at) / Fold change /veh TPSAB1 /// TPSB2 (11721975_s_at) / RFU GSTM3 (11746129_a_at) / Fold change /veh GSTM3 (11746129_a_at) / RFU IL23R (11737362_x_at) / Fold change /veh IL23R (11737362_x_at) / RFU TMEM51 (11727254_a_at) / Fold change /veh TMEM51 (11727254_a_at) / RFU PIWIL2 (11732686_x_at) / Fold change /veh PIWIL2 (11732686_x_at) / RFU ORM1 (11744905_x_at) / Fold change /veh ORM1 (11744905_x_at) / RFU CCDC152 (11743942_at) / Fold change /veh CCDC152 (11743942_at) / RFU ECM1 (11717891_a_at) / Fold change /veh ECM1 (11717891_a_at) / RFU IL23R (11748794_a_at) / Fold change /veh IL23R (11748794_a_at) / RFU TNFAIP8L3 (11732012_x_at) / Fold change /veh TNFAIP8L3 (11732012_x_at) / RFU MBOAT4 (11741988_at) / Fold change /veh MBOAT4 (11741988_at) / RFU 11764193_at / Fold change /veh 11764193_at / RFU TMEM53 (11763286_at) / Fold change /veh TMEM53 (11763286_at) / RFU MAGEB2 (11727129_at) / Fold change /veh MAGEB2 (11727129_at) / RFU TMEM200A (11744735_a_at) / Fold change /veh TMEM200A (11744735_a_at) / RFU CCDC152 (11751479_a_at) / Fold change /veh CCDC152 (11751479_a_at) / RFU FAM211A (11726209_a_at) / Fold change /veh FAM211A (11726209_a_at) / RFU RGS16 (11746705_a_at) / Fold change /veh RGS16 (11746705_a_at) / RFU VCAN (11755009_s_at) / Fold change /veh VCAN (11755009_s_at) / RFU RHOB (11743442_s_at) / Fold change /veh RHOB (11743442_s_at) / RFU RGS16 (11720943_a_at) / Fold change /veh RGS16 (11720943_a_at) / RFU RGS16 (11720944_at) / Fold change /veh RGS16 (11720944_at) / RFU, VPS4B / Fold change vs veh, VPS4B / RFU, CREB1 / Fold change vs veh, CREB1 / RFU, DNAJC13 / Fold change vs veh, DNAJC13 / RFU, GNAQ / Fold change vs veh, GNAQ / RFU, CDK5R1 / Fold change vs veh, CDK5R1 / RFU, ZRANB3 / Fold change vs veh, ZRANB3 / RFU, CUL4A / Fold change vs veh, CUL4A / RFU, CCNY / Fold change vs veh, CCNY / RFU, UFL1 / Fold change vs veh, UFL1 / RFU, COG3 / Fold change vs veh, COG3 / RFU, DIAPH2 / Fold change vs veh, DIAPH2 / RFU, SKA2 / Fold change vs veh, SKA2 / RFU, AFF3 / Fold change vs veh, AFF3 / RFU, LMF1 / Fold change vs veh, LMF1 / RFU, IPO11 / Fold change vs veh, IPO11 / RFU, DFFB / Fold change vs veh, DFFB / RFU, FOXP1 / Fold change vs veh, FOXP1 / RFU, CARD8 / Fold change vs veh, CARD8 / RFU, STRN3 / Fold change vs veh, STRN3 / RFU, ADK / Fold change vs veh, ADK / RFU, RASSF2 / Fold change vs veh, RASSF2 / RFU, WIPF1 / Fold change vs veh, WIPF1 / RFU, LARP1B / Fold change vs veh, LARP1B / RFU, RASA1 / Fold change vs veh, RASA1 / RFU, RB1 / Fold change vs veh, RB1 / RFU, PPFIA1 / Fold change vs veh, PPFIA1 / RFU, MAT2A / Fold change vs veh, MAT2A / RFU, CCT5 / Fold change vs veh, CCT5 / RFU, WDR92 / Fold change vs veh, WDR92 / RFU, CUX1 / Fold change vs veh, CUX1 / RFU, TTC7A / Fold change vs veh, TTC7A / RFU, TMEM135 / Fold change vs veh, TMEM135 / RFU, DEPTOR / Fold change vs veh, DEPTOR / RFU, CPM / Fold change vs veh, CPM / RFU, DNAJB6 / Fold change vs veh, DNAJB6 / RFU, CACNA2D3 / Fold change vs veh, CACNA2D3 / RFU, DTX4 / Fold change vs veh, DTX4 / RFU, TFCP2 / Fold change vs veh, TFCP2 / RFU, GMCL1 /// GMCL1P1 / Fold change vs veh, GMCL1 /// GMCL1P1 / RFU, AEBP2 / Fold change vs veh, AEBP2 / RFU, SNHG1 /// SNORD22 /// SNORD25 /// SNORD26 /// SNORD27 /// SNORD28 /// SNORD29 /// SNORD31 / Fold change vs veh, SNHG1 /// SNORD22 /// SNORD25 /// SNORD26 /// SNORD27 /// SNORD28 /// SNORD29 /// SNORD31 / Fold change (Aza/veh), C12orf56 (ProbeSet 11735607_a_at) / Fold change (ACY-1035/veh), C12orf56 (ProbeSet 11735607_a_at) / Fold change (Aza/veh), FGFR1OP (ProbeSet 11751329_s_at) / Fold change (ACY-1035/veh), FGFR1OP (ProbeSet 11751329_s_at) / Fold change (Aza/veh), VPS36 (ProbeSet 11739960_a_at) / Fold change (ACY-1035/veh), VPS36 (ProbeSet 11739960_a_at) / RFU SYPL1 (11715823_x_at) / Fold change /veh SYPL1 (11715823_x_at) / RFU IGFBP7 (11715501_s_at) / Fold change /veh IGFBP7 (11715501_s_at) / RFU REEP3 (11722064_at) / Fold change /veh REEP3 (11722064_at) / RFU IGLL1 (11728026_x_at) / Fold change /veh IGLL1 (11728026_x_at): dose or concentration left out as unconfirmed
Settings: ProbeSet 11716844_s_at; LIST D

Nc1ccc(-c2cccs2)cc1NC(=O)c1ccc2c(c1)cc(C1CC1)n2CCN1CCOCC1 [ACY-1035]
RFU, DNAJC13: 129.69 RFU

— PMC5218480 (PLoS ONE, 2017)
